Test system: not given
Test: not given
Settings: not given
In the case of `Cc1cccc(C(=O)Nc2ccc(N3CCN(CC(N)=O)CC3)nc2)c1-c1ccc(C(C)C)cc1` [Example 1, 4′-Isopropyl-6-methyl-biphenyl-2-carboxylic acid [2-(4-carbamoylmethyl-piperazin-1-yl)-pyridin-5-yl]-amide], the melting point is reported as 200 to 202 °C.
Work on `Cc1cccc(C(=O)Nc2ccc(N3CCN(Cc4ccc[nH]4)CC3)nc2)c1-c1ccc(C(C)C)cc1` [Example 5, 4′-Isopropyl-6-methyl-biphenyl-2-carboxylic acid [2-(4-(1H-pyrrol-2-ylmethyl)piperazin-1-yl)-pyridin-5-yl]-amide] yielded a melting point of 130 °C.
`N#Cc1cccc(CN2CCN(c3ccc(NC(=O)c4ccccc4-c4ccc(C(F)(F)F)cc4)cn3)CC2)c1` [Example 17, 4′-Trifluoromethyl-biphenyl-2-carboxylic acid [2-(4-(3-cyano-benzyl)-piperazin-1-yl)-pyridin-5-yl]-amide] gave a melting point of 168 °C.
With `Cc1ccc(C(=O)Nc2ccc(N3CCN(Cc4cccc(C#N)c4)CC3)nc2)c(-c2ccc(C(F)(F)F)cc2)c1` [Example 22, 5-Methyl-4′-trifluoromethyl-biphenyl-2-carboxylic acid [2-(4-(3-cyano-benzyl)-piperazin-1-yl)-pyridin-5-yl]-amide] the melting point was 158 to 160 °C.
With `COc1cccc(C(=O)Nc2ccc(N3CCN(Cc4cccc(C#N)c4)CC3)nc2)c1-c1ccc(C(C)C)cc1` [Example 18, 4′-Isopropyl-6-methoxy-biphenyl-2-carboxylic acid [2-(4-(3-cyano-benzyl)-piperazin-1-yl)-pyridin-5-yl]-amide] the melting point was 194 to 196 °C.
For `Cc1ccc(C(=O)Nc2ccc(N3CCN(Cc4cccc(C#N)c4)CC3)nc2)c(-c2ccc(C(C)C)cc2)c1` [Example 21, 4′-Isopropyl-5-methyl-biphenyl-2-carboxylic acid [2-(4-(3-cyano-benzyl)-piperazin-1-yl)-pyridin-5-yl]-amide], the melting point was 161 to 163 °C.
Molecule `Cc1cccc(C(=O)Nc2ccc(N3CCN(Cc4ccc[nH]4)CC3)nc2)c1-c1ccc(C(F)(F)F)cc1` [Example 6, 6-Methyl4′-trifluoromethyl-biphenyl-2-carboxylic acid [2-(4-(1H-pyrrol-2-ylmethyl)piperazin-1-yl)-pyridin-5-yl]-amide] has a melting point of 142 to 144 °C.
For `Cc1noc(-c2cccc(CN3CCN(c4ccc(NC(=O)c5cccc(C)c5-c5ccc(C(C)C)cc5)cn4)CC3)c2)n1` [Example 10, 4′-Isopropyl-6-methyl-biphenyl-2-carboxylic acid [2-(4-(3-(3-methyl-[1,2,4]oxadiazol-5-yl)-benzyl)-piperazin-1-yl)-pyridin-5-yl]-amide], the melting point was 150 to 152 °C.
Work on `COc1cccc(C(=O)Nc2ccc(N3CCN(Cc4ccc[nH]4)CC3)nc2)c1-c1ccc(C(C)C)cc1` [Example 7, 4′-Isopropyl-6-methoxy-biphenyl-2-carboxylic acid [2-(4-(1H-pyrrol-2-ylmethyl)piperazin-1-yl)-pyridin-5-yl]-amide] yielded a melting point of 197 to 199 °C.
In the case of `Cc1cccc(C(=O)Nc2ccc(N3CCN(Cc4cccc(C#N)c4)CC3)nc2)c1-c1ccc(C(F)(F)F)cc1` [Example 20, 6-Methyl-4′-trifluoromethyl-biphenyl-2-carboxylic acid [2-(4-(3-cyano-benzyl)-piperazin-1-yl)-pyridin-5-yl]-amide], the melting point is reported as 164 to 166 °C.
Work on `Cc1noc(-c2cccc(CN3CCN(c4ccc(NC(=O)c5cccc(C(C)C)c5-c5ccc(C(C)C)cc5)cn4)CC3)c2)n1` [Example 13, 4′,6-Diisopropyl-biphenyl-2-carboxylic acid [2-(4-(3-(3-methyl-[1,2,4]oxadiazol-5-yl)-benzyl)-piperazin-1-yl)-pyridin-5-yl]-amide] yielded a melting point of 125 °C.
With `COc1cccc(C(=O)Nc2ccc(N3CCN(Cc4cccc(-c5nc(C)no5)c4)CC3)nc2)c1-c1ccc(C(C)C)cc1` [Example 12, 4′-Isopropyl-6-methoxy-biphenyl-2-carboxylic acid [2-(4-(3-(3-methyl-[1,2,4]oxadiazol-5-yl)-benzyl)-piperazin-1-yl)-pyridin-5-yl]-amide] the melting point was 136 to 138 °C.
In the case of `O=C(Nc1ccc(N2CCN(Cc3ccco3)CC2)nc1)c1ccccc1-c1ccc(C(F)(F)F)cc1` [Example 14, 4′-Trifluoromethyl-biphenyl-2-carboxylic acid [2-(4-(furan-2-ylmethyl)piperazin-1-yl)-pyridin-5-yl]-amide], the melting point is reported as 149 °C.
`C=C(C)N1CCN(c2ccc(NC(=O)c3cccc(C(C)C)c3-c3ccc(C(C)C)cc3)cn2)CC1` [Example 25, 4′,6-Diisopropyl-biphenyl-2-carboxylic acid-[2-(4-(propen-2-yl)-piperazin-1-yl)-pyridin-5-yl]-amide] showed a melting point of 124 °C.
Molecule `Cc1cccc(C(=O)Nc2ccc(N3CCN(Cc4cccc(C#N)c4)CC3)nc2)c1-c1ccc(C(C)C)cc1` [Example 19, 4′-Isopropyl-6-methyl-biphenyl-2-carboxylic acid [2-(4-(3-cyano-benzyl)-piperazin-1-yl)-pyridin-5-yl]-amide] has a melting point of 154 to 156 °C.
In the case of `Cc1noc(-c2cccc(CN3CCN(c4ccc(NC(=O)c5ccccc5-c5ccc(C(F)(F)F)cc5)cn4)CC3)c2)n1` [Example 9, 4′-Trifluoromethyl-biphenyl-2-carboxylic acid [2-(4-(3-(3-methyl-[1,2,4]oxadiazol-5-yl)-benzyl)-piperazin-1-yl)-pyridin-5-yl]-amide], the melting point is reported as 192 to 194 °C.
For `CC(C)c1ccc(-c2c(C(=O)Nc3ccc(N4CCN(C(C)C)CC4)nc3)cccc2C(C)C)cc1` [Example 26, 4′,6-Diisopropyl-biphenyl-2-carboxylic acid-[2-(4-(isopropyl)-piperazin-1-yl)-pyridin-5-yl]-amide], the melting point was 136 °C.
In the case of `COc1cccc(C(=O)Nc2ccc(N3CCN(CC(N)=O)CC3)nc2)c1-c1ccc(C(C)C)cc1` [Example 3, 4′-Isopropyl-6-methoxy-biphenyl-2-carboxylic acid [2-(4-carbamoylmethyl-piperazin-1-yl)-pyridin-5-yl]-amide], the melting point is reported as 210 to 212 °C.
`Cc1cccc(C(=O)Nc2ccc(N3CCN(CC(N)=O)CC3)nc2)c1-c1ccc(C(F)(F)F)cc1` [Example 2, 6-Methyl-4′-trifluoromethyl-biphenyl-2-carboxylic acid [2-(4-carbamoylmethyl-piperazin-1-yl)-pyridin-5-yl]-amide] gave a melting point of 180 to 181 °C.
For `CC(C)c1ccc(-c2c(C(=O)Nc3ccc(N4CCN(Cc5cccc(C#N)c5)CC4)nc3)cccc2C(C)C)cc1` [Example 15, 4′,6-Diisopropyl-biphenyl-2-carboxylic acid [2-(4-(3-cyano-benzyl)-piperazin-1-yl)-pyridin-5-yl]-amide], the melting point was 151 °C.
Molecule `CCCN1CCN(c2ccc(NC(=O)c3cccc(C(C)C)c3-c3ccc(C(C)C)cc3)cn2)CC1` [Example 23, 4′,6-Diisopropyl-biphenyl-2-carboxylic acid-[2-(4-propyl-piperazin-1-yl)-pyridin-5-yl]-amide] has a melting point of 126 to 128 °C.
Molecule `CC(C)c1ccc(-c2c(C(=O)Nc3ccc(N4CCN(CC(N)=O)CC4)nc3)cccc2C(C)C)cc1` [Example 4, 4′,6-Diisopropyl-biphenyl-2-carboxylic acid [2-(4-carbamoylmethyl-piperazin-1-yl)-pyridin-5-yl]-amide] has a melting point of 169 °C.
`CC(C)c1ccc(-c2c(C(=O)Nc3ccc(N4CCN(C)CC4)nc3)cccc2C(C)C)cc1` [Example 24, 4′,6-Diisopropyl-biphenyl-2-carboxylic acid-[2-(4-methyl-piperazin-1-yl)-pyridin-5-yl]-amide] gave a melting point of 152 to 154 °C.

Biological target: human MTP (Homo sapiens, UniProt P55157)
Sequence (P55157 19-894): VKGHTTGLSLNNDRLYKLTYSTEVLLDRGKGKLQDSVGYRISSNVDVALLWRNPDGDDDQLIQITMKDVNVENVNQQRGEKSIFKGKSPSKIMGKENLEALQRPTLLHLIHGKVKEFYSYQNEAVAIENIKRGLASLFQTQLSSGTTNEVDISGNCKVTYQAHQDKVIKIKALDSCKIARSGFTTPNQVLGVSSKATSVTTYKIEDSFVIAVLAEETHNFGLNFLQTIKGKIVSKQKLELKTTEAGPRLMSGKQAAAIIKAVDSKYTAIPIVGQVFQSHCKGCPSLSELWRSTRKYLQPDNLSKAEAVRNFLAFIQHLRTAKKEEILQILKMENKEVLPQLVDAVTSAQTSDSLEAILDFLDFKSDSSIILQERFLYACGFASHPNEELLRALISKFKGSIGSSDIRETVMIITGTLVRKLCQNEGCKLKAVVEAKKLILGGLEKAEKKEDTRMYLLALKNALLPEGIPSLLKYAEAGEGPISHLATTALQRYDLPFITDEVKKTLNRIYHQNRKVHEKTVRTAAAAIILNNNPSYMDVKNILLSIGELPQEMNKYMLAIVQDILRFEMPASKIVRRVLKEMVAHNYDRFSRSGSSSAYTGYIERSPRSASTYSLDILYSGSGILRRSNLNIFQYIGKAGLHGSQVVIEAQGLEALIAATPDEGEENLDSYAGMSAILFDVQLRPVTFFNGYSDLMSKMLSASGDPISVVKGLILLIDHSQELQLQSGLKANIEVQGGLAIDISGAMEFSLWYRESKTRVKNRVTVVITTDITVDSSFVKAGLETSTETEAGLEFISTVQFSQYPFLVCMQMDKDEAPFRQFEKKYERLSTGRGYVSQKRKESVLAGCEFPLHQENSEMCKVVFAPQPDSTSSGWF
Sequence (P07237 18-508 partner): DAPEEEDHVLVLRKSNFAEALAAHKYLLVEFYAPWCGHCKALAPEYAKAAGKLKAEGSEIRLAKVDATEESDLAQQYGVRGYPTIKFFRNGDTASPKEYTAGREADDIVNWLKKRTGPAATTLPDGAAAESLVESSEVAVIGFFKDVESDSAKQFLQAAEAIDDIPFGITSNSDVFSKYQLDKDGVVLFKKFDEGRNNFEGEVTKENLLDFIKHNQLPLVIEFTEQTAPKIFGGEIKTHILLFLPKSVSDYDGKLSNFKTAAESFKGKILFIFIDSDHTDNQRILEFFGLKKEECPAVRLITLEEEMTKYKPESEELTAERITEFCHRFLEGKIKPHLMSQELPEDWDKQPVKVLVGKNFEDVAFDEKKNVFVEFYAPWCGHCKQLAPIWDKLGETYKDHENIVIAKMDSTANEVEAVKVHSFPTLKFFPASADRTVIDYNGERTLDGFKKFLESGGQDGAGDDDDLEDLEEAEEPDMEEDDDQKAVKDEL
Test: human MTP activity assay (SPA, 3H-triolein transfer between liposomes)
Assay type: biochemical
Settings: MTP-mediated 3H-triolein transfer from donor to acceptor liposomes, 25 min at 37° C., streptavidin-SPA beads
Protocol: The ability of the compounds of this invention to inhibit human MTP activity is measured by an in vitro assay where MTP tranfers 3H-triolein between phosphatidylcholine liposomes. The specificity of the compounds of the invention is established by comparing the effects on apoB-100 and apoprotein A-1 production. A specificity of at least 100 is preferred.
The human MTP activity assay was established using SPA technology. Donor liposomes were prepared with 3H-triolein and phosphatidylcholine, while acceptor liposomes contained biotinylated phosphatidylethanolamine and phosphatidylcholine. The MTP-mediated 3H-triolein transfer onto acceptor liposomes was allowed by a 25 min incubation at 37° C., and quantified by the addition of streptavidin-SPA beads.
`Cc1cccc(C(=O)Nc2ccc(N3CCN(CC(N)=O)CC3)nc2)c1-c1ccc(C(C)C)cc1` [Example 1, 4′-Isopropyl-6-methyl-biphenyl-2-carboxylic acid [2-(4-carbamoylmethyl-piperazin-1-yl)-pyridin-5-yl]-amide] gave an IC50 of 0.3 nM.
`Cc1cccc(C(=O)Nc2ccc(N3CCN(Cc4ccc[nH]4)CC3)nc2)c1-c1ccc(C(C)C)cc1` [Example 5, 4′-Isopropyl-6-methyl-biphenyl-2-carboxylic acid [2-(4-(1H-pyrrol-2-ylmethyl)piperazin-1-yl)-pyridin-5-yl]-amide] showed an IC50 of 0.1 nM.
In the case of `C=CCN1CCN(c2ccc(NC(=O)c3cccc(C(C)C)c3-c3ccc(C(C)C)cc3)cn2)CC1` [Example 25], the IC50 is reported as < 0.1 nM.
`CC(C)c1ccc(-c2c(C(=O)Nc3ccc(N4CCN(Cc5cccc(C#N)c5)CC4)nc3)cccc2C(C)C)cc1` [Example 15, 4′,6-Diisopropyl-biphenyl-2-carboxylic acid [2-(4-(3-cyano-benzyl)-piperazin-1-yl)-pyridin-5-yl]-amide] gave an IC50 of 0.16 nM.
